Patent US11618909B2, “Acid-tolerant Saccharomyces cerevisiae and use thereof” (JIANGNAN UNIVERSITY, priority 2020, dated 2023)

System: mutant MTPfo-4
Test: Tolerance to other acids by OD600, mutant MTPfo-4
Type: cell-based, Saccharomyces cerevisiae
Conditions: pH 2.44, OD600 over 72 h
Protocol: To analyze the tolerance of the mutant MTPfo-4 to other acids, 10 acids, including 2 inorganic acids of HCl and H3PO4, and 8 organic acids of lactic acid, malic acid, fumaric acid, succinate acid, tartaric acid, furoic acid, gluconic acid, and citric acid, were added exogenously in the present invention to analyze the acid tolerance of cells. The initial pH was controlled to 2.44. The cells were sampled every 12 h for consecutive 72 h. The acid tolerance of cells was analyzed by determining the OD600. […] The cells were sampled every 12 h for consecutive 72 h. The acid resistance of the cells was analyzed again by determining the OD600.

| Compound | effect of the acid on the mutant MTPfo-4 |
| --- | --- |
| O=C(O)/C=C/C(=O)O [fumaric acid] | inhibitory effect |
| O=C(O)c1ccco1 [furoic acid] | inhibitory effect |
| O=C(O)CCC(=O)O [succinic acid] | inhibitory effect |
| O=C(O)C(O)C(O)C(=O)O (stereo not shown) [tartaric acid] | inhibitory effect |
